In ChEMBL document CHEMBL1201862, “PubChem BioAssay data set” (2004):
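Exposure lasted 48 hours, with cells grown in 96-well plates and compounds tested at five concentrations. At the GI50, growth is halved.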 Active and inactive are the calls of the source. Rule as the data show it: active = GI50 up to about 1.1 µM and inactive = higher.

Legend:
Test in all cases: NCI-60 cell line screen, 48 h
786-0 = test system: 786-0
A498 = test system: A498
A549 = test system: A549
ACHN = test system: ACHN
CAKI-1 = test system: CAKI-1
CCRF-CEM = test system: CCRF-CEM
COLO 205 = test system: COLO 205
DLD-1 = test system: DLD-1
DMS-114 = test system: DMS-114
DMS-273 = test system: DMS-273
EKVX = test system: EKVX
HCC 2998 = test system: HCC 2998
HCT-116 = test system: HCT-116
HCT-15 = test system: HCT-15
HL-60 = test system: HL-60
HOP-18 = test system: HOP-18
HOP-62 = test system: HOP-62
HOP-92 = test system: HOP-92
HT-29 = test system: HT-29
IGROV-1 = test system: IGROV-1
K562 = test system: K562
KM-20L2 = test system: KM-20L2
KM12 = test system: KM12
LOX IMVI = test system: LOX IMVI
LXFL 529 = test system: LXFL 529
M14 = test system: M14
M19-MEL = test system: M19-MEL
MOLT-4 = test system: MOLT-4
Malme-3M = test system: Malme-3M
NCI-H226 = test system: NCI-H226
NCI-H23 = test system: NCI-H23
NCI-H460 = test system: NCI-H460
NCI-H522 = test system: NCI-H522
OVCAR-3 = test system: OVCAR-3
OVCAR-4 = test system: OVCAR-4
OVCAR-5 = test system: OVCAR-5
OVCAR-8 = test system: OVCAR-8
RPMI-8226 = test system: RPMI-8226
RXF 393 = test system: RXF 393
SF-268 = test system: SF-268
SF-295 = test system: SF-295
SF-539 = test system: SF-539
SK-MEL-28 = test system: SK-MEL-28
SK-MEL-2 = test system: SK-MEL-2
SK-MEL-5 = test system: SK-MEL-5
SK-OV-3 = test system: SK-OV-3
SN12C = test system: SN12C
SNB-19 = test system: SNB-19
SNB-75 = test system: SNB-75
SNB-78 = test system: SNB-78
SW-620 = test system: SW-620
TK-10 = test system: TK-10
U-251 = test system: U-251
UACC-257 = test system: UACC-257
UACC-62 = test system: UACC-62
UO-31 = test system: UO-31
XF498 = test system: XF498

For `O=C(Cc1ccccc1[N+](=O)[O-])C(CO)c1ccccc1[N+](=O)[O-]` (configuration not stated), the GI50 (786-0) was > 100 µM (inactive), the GI50 (A498) was 80.4 µM (inactive) and the GI50 (A549) was 72.1 µM (inactive). The GI50 (ACHN) was 38.2 µM (inactive), the GI50 (CAKI-1) was 40.5 µM (inactive) and the GI50 (CCRF-CEM) was 71.4 µM (inactive). For the same molecule, the GI50 (COLO 205) was > 100 µM (inactive), the GI50 (DLD-1) was > 100 µM (inactive) and the GI50 (DMS-114) was 67.1 µM (inactive). The GI50 (DMS-273) was > 100 µM (inactive), the GI50 (EKVX) was 70.6 µM (inactive) and the GI50 (HCC 2998) was > 100 µM (inactive). The GI50 (HCT-116) was 70.5 µM (inactive), the GI50 (HCT-15) was greater than 100 µM and the GI50 (HL-60) was 67.1 µM (inactive). For the same molecule, the GI50 (HOP-18) was 4.17 µM (inactive), the GI50 (HOP-62) was > 100 µM (inactive) and the GI50 (HOP-92) was 23.6 µM (inactive). For the same molecule, the GI50 (HT-29) was 26.2 µM (inactive), the GI50 (IGROV-1) was > 100 µM (inactive) and the GI50 (K562) was 71.1 µM (inactive). The GI50 (KM-20L2) was > 100 µM (inactive), the GI50 (KM12) was > 100 µM (inactive) and the GI50 (LOX IMVI) was 91.8 µM (inactive). For the same molecule, the GI50 (LXFL 529) was 57.1 µM (inactive), the GI50 (M14) was > 100 µM (inactive) and the GI50 (M19-MEL) was 95.9 µM (inactive). For the same molecule, the GI50 (MOLT-4) was 35.7 µM (inactive), the GI50 (Malme-3M) was 79.4 µM (inactive) and the GI50 (NCI-H226) was 15.6 µM (inactive). The GI50 (NCI-H23) was 45.3 µM (inactive), the GI50 (NCI-H460) was 96.8 µM (inactive) and the GI50 (NCI-H522) was 16.8 µM (inactive). The GI50 (OVCAR-3) was 66.1 µM (inactive), the GI50 (OVCAR-4) was 96.4 µM (inactive) and the GI50 (OVCAR-5) was > 100 µM (inactive). For the same molecule, the GI50 (OVCAR-8) was 89.5 µM (inactive), the GI50 (RPMI-8226) was 78.7 µM (inactive) and the GI50 (RXF 393) was 92.5 µM (inactive). For the same molecule, the GI50 (SF-268) was 35.2 µM (inactive), the GI50 (SF-295) was > 100 µM (inactive) and the GI50 (SF-539) was > 100 µM (inactive). The GI50 (SK-MEL-28) was > 100 µM (inactive), the GI50 (SK-MEL-2) was > 100 µM (inactive) and the GI50 (SK-MEL-5) was 31.7 µM (inactive). For the same molecule, the GI50 (SK-OV-3) was > 100 µM (inactive), the GI50 (SN12C) was > 100 µM (inactive) and the GI50 (SNB-19) was > 100 µM (inactive). For the same molecule, the GI50 (SNB-75) was 67.3 µM (inactive), the GI50 (SNB-78) was > 100 µM (inactive) and the GI50 (SW-620) was > 100 µM (inactive). For the same molecule, the GI50 (TK-10) was > 100 µM (inactive), the GI50 (U-251) was > 100 µM (inactive) and the GI50 (UACC-257) was 72.3 µM (inactive). For the same molecule, the GI50 (UACC-62) was 83 µM (inactive), the GI50 (UO-31) was 19.9 µM (inactive) and the GI50 (XF498) was 20.8 µM (inactive).
